Source: patent publication US9597297B2, “Combination of pilocarpin and methimazol for treating Charcot-Marietooth disease and related disorders” (PHARNEXT, priority 2008, dated 2017)

Key:
[1] = system: CMT transgenic rat model (PMP22 transgenic rats); assay: Post-mortem weighing of sciatic nerves and soleus muscles in CMT rats; type: in vivo; conditions: CMT female rats treated 20 weeks
Excerpt: FIG. 5: The analysis of the post-mortem samples obtained from the animals treated with drugs as described in the legend to FIG. 3. The rats treated with drugs and placebo during 20 weeks, were deeply anesthetized and the entire sciatic nerves and soleus muscles were carefully sampled and weighted. The graphs present the 30 mean values of these measurements.
Sciatic nerves are excised and used for weighting as well as for molecular biology and/or biochemical essays. (RT-Q-PCR for PMP22 mRNA and Western blots for myelin proteins quantifications; Cayman's EIA kits—for biochemical markers such as arachidonic acid metabolites, HPLC quantification for steroids and amines, ELISA for CNTF, IL-6 etc.) performed according to generally used protocols and for analytical procedures (drug concentrations measures).
The hind limbs muscles (soleus) are sampled, weighted, snap-frozen and preserved at −80° C. until analysis (the same as for sciatic nerves).

[2] = system: PMP22 mRNA; assay: PMP22 mRNA expression in primary rat Schwann cells after 24 hrs drug incubation; type: cell-based
Description: Vials of rat Schwann cells (SC) primary culture (Sciencell # R1700) are defrosted and seeded at the density of 10,000 cells/cm2 in “Sciencell Schwann cell medium” (basal medium from Sciencell # R1701) in poly-L-lysine pre-coated 75 cm^2 flasks. The culture medium is composed of basal medium, 5% Fetal Bovine Serum (3H-Biomedical AB #1701-0025), 1% Schwann cell growth supplement (3H Biomedical AB #1701-1752), 1% Gentamicin (Sigma #G1397) and 10 μM of Forskolin (Sigma # F6886) to promote their proliferation.
After reaching confluency (4 to 10 days depending on cell batch), Schwann cells are purified by gentle agitation or by thy1.1 immunopanning that allow SC isolation from adherent fibroblasts, to produce cultures that are at least 95% pure. SC are then counted (Tryptan blue method) and seeded in poly-L-lysine pre-coated 75 cm^2 flask in the same SC medium. At confluency, cells are rinsed, trypsinized (trypsin-EDTA 1× diluted from Invitrogen #1540054), diluted in PBS without calcium and magnesium) counted and platted in 12 well-dishes (140 000 cells/well) in Sciencell Schwann cell medium with 5% of FBS, 1% of cell growth supplement (CGS), 40 μg/ml of gentamicin and 4 μM Forskolin.
Primary Schwann cell cultures (SC) are established from Sprague-Dawley newborn rats (between P0 and P2) sciatic nerves. All newborn rats are sacrificed and isolated in a Petri dish. Dissection is performed under sterile conditions.
The dorsal skin is removed from the hind paw and the lower torso. The sciatic nerve is isolated and transferred to a culture dish containing ice-cold Leibovitz (L15, Invitogen #11415) supplemented with 1% penicillin/streptomycin solution (50 UI/ml and 50 μg/ml, respectively; Invitrogen #15070) and 1% of bovine serum albumin (BSA, Sigma A6003). Both nerves per rats are transferred in a 15 ml tube containing ice-cold L15. The L15 medium is then removed and replaced by 2.4 ml of DMEM (Invitrogen #21969035) with 10 mg/ml of collagenase ([…]). Nerves are incubated in this medium for 30 minutes at 37° C. The medium is then removed and both nerves are dissociated by trypsin (10% trypsin EDTA 10×, Invitrogen #15400054) diluted in PBS without calcium and magnesium (Invitrogen #2007-03) for 20 min at 37° C. […] Cells are counted (Tryptan blue method) and seeded in Falcon 100 mm Primaria tissue culture plates at the density of 5·10^5 to 10^6 cells/dish. […]
After 8 days of culture (4 to 10 days depending on cell batches), Schwann cells reach confluency and the culture, containing a large amount of contaminating fibroblasts, is purified by the thy1.1 immunopanning method. […] Once they reach confluency, cells are rinsed, trypsinized (trypsin-EDTA), counted and platted in 12 well-dishes (100 000 cells/well). […]

SMILES | mass of sciatic nerves and soleus muscles [1] | dose inducing the most important PMP22 mRNA down-regulation ([2]; primary Schwann cells) | PMP22 mRNA level of expression ([2]; primary Schwann cells, low doses 10 nM and 50 nM) | PMP22 mRNA level ([2]; primary rat Schwann cells, 1 mM or 1 μM of compound A)
CC[C@@H]1C(=O)OC[C@@H]1Cc1cncn1C [pilocarpine, (3S,4R)-3-ethyl-4-[(3-methylimidazol-4-yl)methyl]oxolan-2-one] | smaller than that of methimazole | 1 µM | significantly down-regulated | 
Cn1cc[nH]c1=S [methimazole, 1-methyl-3H-imidazole-2-thione] | completely corrected | lower dose |  | significantly decreased
